Measured values: article PMC9501899 (Journal of the American Chemical Society, 2022)
Like-named read-outs stand apart in the source and are kept apart here.

Assays:
LRRK2 = experiment: Western blot screening of PROTACs in WT and G2019S LRRK2 MEFs; type: cell-based, mouse
Procedure: These PROTACs were then biologically evaluated in mouse embryonic fibroblasts (MEFs) by Western blotting. Briefly, MEFs were treated with compounds at 33 nM and 1 μM for 4 h (Figure 2) and 24 h (Figure S2) separately, and the intracellular level of LRRK2, phosphorylated LRRK2 at Ser935, and phosphorylated Rab10 (pRab10) at Thr73 was determined. Rab10[5],[49] is one of the bona fide substrates of LRRK2, whose phosphorylation status is directly affected by the LRRK2 kinase activity and protein level. Phosphorylation of LRRK2 at Ser935 is a well-studied biomarker site used to assess the efficacy of type 1 LRRK2 inhibitors.[30]
Primary MEFs were generated as described in a previous study.[80] Briefly, the uterine horn was collected from adult female mice at day E12.5 and transferred to a 10 cm tissue culture dish containing cold PBS. Two forceps were used to tear the yolk sacs to isolate each embryo. Forceps were cleaned thoroughly with 70% ethanol between each embryo isolation. The embryos were culled, and a tissue piece was collected in a polymerase chain reaction (PCR) tube for genotyping. The red tissue of the embryo was removed, and the remainder was minced with a scalpel blade and incubated with a 7.5 mL trypsin–ethylenediaminetetraacetic acid (EDTA) solution for 10 min in a 37 °C, 5% CO2 tissue culture incubator. The dish was removed from the incubator and checked under a light microscope for single cells. Complete media (7.5 mL) was added to the trypsinized cells, and the cell suspension was transferred to a 15 mL Falcon tube and centrifuged at 1200 rpm for 5 min at room temperature. The trypsin was aspirated, the cell pellet was resuspended in a 5 mL fresh complete media, and the cell suspension was plated in a 60 mm tissue culture dish and incubated in a 37 °C, 5% CO2 tissue culture incubator. The MEFs at this stage were considered as passage 0 and were passaged and expanded for experimental use once the genotype was confirmed by allelic sequencing and immunoblotting. MEFs were cultured in Dulbecco’s modified Eagle’s medium (DMEM) containing 10% (v/v) fetal bovine serum (FBS), 2 mM L-glutamine, 100 U/mL penicillin, and 100 μg/mL streptomycin supplemented with 1× nonessential amino acids and 1 mM sodium pyruvate.
Culturing and passaging of adherent cell lines were carried out using an aseptic technique in CL1 or CL2 (for PBMC isolation) biological safety cabinets. All cells were incubated in a 37 °C incubator with 5% CO2. Cell lines were regularly tested for mycoplasma contamination. For Western blot assay, the cells were seeded in six-well plates.

LRRK1, VPS35, PPM1H = experiment: TMT-based global proteomic profiling in WT MEFs, LRRK2-related proteins; type: cell-based, mouse; conditions: 300 nM, 4 h
[1] = Mouse liver microsome stability; type: in vitro ADME; conditions: liver microsomes
Procedure: Testing compound (1.5 μL) or reference compound (500 μM in 5% DMSO and 95% acetonitrile) was mixed with 18.75 μL of 20 mg/mL liver microsome (Corning) and 479.75 μL of potassium phosphate buffer (0.1 M potassium phosphate buffer, 1 mM EDTA, pH 7.4). The reaction was started by mixing 30 μL of the above mixture (prewarmed to 37 °C) with 15 μL of 6 mM NADPH stock solution (prewarmed to 37 °C). After incubating for 5, 15, 30, or 45 min, 135 μL of acetonitrile containing internal standard was added to stop the reaction. For 0 min, the compound and microsome mixture were mixed with acetonitrile first before adding NADPH. After quenching, the reaction mixture was centrifuged, and the supernatant was taken and diluted for LC-MS analysis.

[2] = Mouse hepatocyte stability; type: in vitro ADME; conditions: mouse hepatocytes
Procedure: Fifty microliters of prewarmed hepatocytes (2 × 10^6 cells/mL) in suspension media (Krebs–Henseleit buffer (Sigma-Aldrich) containing 5.6 g/L HEPES) was mixed with 50 μL of prewarmed compound dosing solution (2 μM in Krebs–Henseleit buffer with 1% DMSO). After incubating at 37 °C for 15, 30, 60, or 120 min, 100 μL of acetonitrile containing internal standard was added to quench the reaction. For 0 min incubation, acetonitrile was mixed with hepatocytes first before adding the compound solution. After quenching, the mixture was shaken at a vibrator for 10 min (600 rpm/min) and then sonicated for 2 min before centrifugation (5594g for 15 min). The supernatant was taken and diluted for LC-MS analysis.

[3] = Pharmacokinetic (PK) study in mice; type: in vivo, C57BL/6 male mice; conditions: for bioavailability: C57BL/6, plasma, mouse
Procedure: Data are mean (±standard deviation (SD)) from three mice at each time point. […]
PK profiling was outsourced and undertaken by Shanghai ChemPartner Co., Ltd. All animal experiments performed were conducted in compliance with the Institutional Animal Care and Use Committee (IACUC) and the Office of Laboratory Animal Welfare (OLAW) guidelines. Six to eight week old C57BL/6 male mice purchased from Jihui Laboratory Animal Co., Ltd. were used in the study. […] The animals were restrained manually at the designated time points (0.083, 0.25, 0.5, 1, 2, 4, and 8 h); approximately, 110 μL of blood sample was collected via facial vein into K2EDTA tubes. Three mice per time point were used, resulting in a total of 21 mice for each administration route. The blood sample was put on ice and centrifuged at 2000g for 5 min to obtain the plasma sample within 15 min. The plasma, brain, and CSF samples were stored at approximately −70 °C until analysis. A 30 μL aliquot of plasma was added with 200 μL of internal standard (Glipozode, 40 ng/mL) in MeCN with 5% Citri. The mixture was then vortexed for 1 min and then centrifuged for 10 min at 5800 rpm. The supernatant (100 μL) was transferred to a new plate. The solution (1 μL) was injected into LC-MS/MS. LC-MS/MS instrument used: SCIEX LC-MS/MS-49 (Triple Quad 6500+). Data were analyzed by WinNonLin and Microsoft Excel.

[4] = male, C57BL/6, IP 30 mg/kg, mouse plasma
[5] = male, C57BL/6, IV 5 mg/kg, mouse plasma
[6] = male, C57BL/6, PO 30 mg/kg, mouse plasma

CNc1nc(Nc2ccc(C(=O)N3CCN(CCOCCOCCSC(C)(C)[C@H](NC(=O)C4(F)CC4)C(=O)N4C[C@H](O)C[C@H]4C(=O)NCc4ccc(-c5scnc5C)cc4)CC3)cc2OC)ncc1Cl [SD75]
degradation of LRRK2 (LRRK2; 0.033 µM): < 40% | degradation of LRRK2 (in words) (LRRK2; 33 nM/4 h, WT and G2019S LRRK2 MEFs): little to no degradation

CNc1nc(Nc2ccc(C(=O)N3CCN(C[C@H]4CC[C@H](CSC(C)(C)[C@H](NC(=O)C5(F)CC5)C(=O)N5C[C@H](O)CC5C(=O)NCc5ccc(-c6scnc6C)cc5)CC4)CC3)cc2OC)ncc1Cl (stereo partly drawn) [XL01126, (2S,4R)-1-((R)-3-((((1R,4R)-4-((4-(4-((5-Chloro-4-(methylamino)pyrimidin-2-yl)amino)-3-methoxybenzoyl)piperazin-1-yl)methyl)cyclohexyl)methyl)thio)-2-(1-fluorocyclopropane-1-carboxamido)-3-methylbutanoyl)-4-hydroxy-N-(4-(4-methylthiazol-5-yl)benzyl)pyrrolidine-2-carboxamide]
levels of LRRK1, VPS35 and PPM1H (in words) (LRRK1, VPS35, PPM1H): remained unaffected | CLint scaled at 1 µM ([1]; pH 7.4): 1490 mL/min/kg | half-life at 1 µM ([1]; pH 7.4, read-out: T1/2 in mouse liver microsome): 3.65 min | CLint scaled at 1 µM [2]: 26 mL/min/kg | half-life at 1 µM ([2]; read-out: T1/2 in mouse hepatocytes): 314 min | Kp ([3]; male, C57BL/6, mouse, brain, other: IV, mice, single dose IV, IP or PO, read-out: brain-to-plasma ratio): < 0.035 | bioavailability ([3]; male, IP 30 mg/kg, read-out: F): 29.2% | bioavailability ([3]; male, PO 30 mg/kg, read-out: F, oral bioavailability): 15% | AUC(0-inf) [3, 4]: 64100 ng·h/mL | AUC(0-t) [3, 4]: 41400 ng·h/mL | Cmax [3, 4]: 7700 ng/mL | Tmax [3, 4]: 0.25 h | half-life [3, 4]: 312 min | AUC(0-inf) [3, 5]: 24000 ng·h/mL | AUC(0-t) [3, 5]: 23700 ng·h/mL | MRT [3, 5]: 2.45 h | clearance [3, 5]: 3.47 mL/min/kg | half-life [3, 5]: 91.2 min | Vd ([3]; male, C57BL/6, IV 5 mg/kg, mouse plasma, read-out: Vss): 0.511 L/kg | AUC(0-inf) [3, 6]: 109000 ng·h/mL | AUC(0-t) [3, 6]: 21300 ng·h/mL | Cmax [3, 6]: 3620 ng/mL | Tmax [3, 6]: 2 h | half-life [3, 6]: 1310 min | presence in brain tissues and CSF (in words) ([3]; mice, single dose IV, IP or PO): detected in brain tissues and CSF
